Test systems include DLD-1; DMS-114; SNB-78; DMS-273; HOP-18; KM-20L2; LXFL 529; RXF 631; XF498.
Common to all, as to assay: NCI anticancer screen, dose series, 48 h

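1) Cells in 96-well plates. 2) Compound, 48 h, 5 concentrations. 3) Linear interpolation between surrounding doses. 4) Unreached endpoint = highest concentration. The concentration for 50% growth inhibition is given as GI50.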 Active and inactive are the calls of the source. Cut-off read from the data, not from the text of the source: active = GI50 up to about 1.1 µM and inactive = higher. Where only a bound is given, the exact number is not on record here.

Take `O=C(/C=C1\NC(=O)c2ccccc2N1)c1ccncc1`: the GI50 with DLD-1, in the assay on DMS-114 and in the assay on SNB-78 was > 100 µM (inactive) in each case.
Take `CCN(CC)CC(O)CNc1ccc(NCC2CO2)c2c1C(=O)c1ccccc1C2=O` (stereo unspecified): the GI50 in the assay with DLD-1 was 1.9 µM (inactive); in the assay on DMS-114, 1.04 µM (active); with DMS-273, 0.242 µM (active); with HOP-18 it was 16.6 µM (inactive); in the assay on KM-20L2, 0.692 µM (active); in the assay with LXFL 529, 0.0486 µM (active). Besides, the GI50 was 0.272 µM (active) in the assay with RXF 631 and 0.398 µM (active) in the assay with SNB-78.
As to `CC1=NN(c2ccccc2)C(=O)C1/N=N/c1ccc(Br)cc1C` (stereo unspecified), the GI50 in the assay on DLD-1 was > 100 µM (inactive); in the assay on DMS-114, > 100 µM (inactive); with DMS-273, > 100 µM (inactive); with HOP-18 it was 3.62 µM (inactive); in the assay with KM-20L2, 0.634 µM (active); in the assay with LXFL 529 it was > 100 µM (inactive). The GI50 is 32.4 µM (inactive) in the assay on RXF 631 and 79.6 µM (inactive) in the assay on SNB-78.
Regarding `O=C1N[C@H]2[C@H](O)[C@H](O)[C@@H](O)[C@H](O)[C@@H]2c2cc3c(c(O)c21)OCO3` [PANCRATISTATIN], the GI50 is 0.0415 µM (active) in the assay with DLD-1; 0.0412 µM (active) in the assay with DMS-114; 0.0826 µM (active) with DMS-273; 0.0598 µM (active) in the assay with HOP-18; 0.0445 µM (active) with KM-20L2; 0.541 µM (active) in the assay with LXFL 529. Moreover, the GI50 with RXF 631 is 0.649 µM (active); in the assay with SNB-78 it was 0.0452 µM (active); in the assay with XF498, 0.0237 µM (active).
`O=C(Nc1c(Cl)cc([N+](=O)[O-])cc1Cl)C(=O)C(C(=O)c1ccncc1)C1OC(=O)c2ccccc21` (stereo unspecified): the GI50 in the assay on DLD-1, with DMS-114, in the assay on DMS-273, with HOP-18, in the assay with KM-20L2 and in the assay with LXFL 529 was > 100 µM (inactive) throughout. The GI50 in the assay on RXF 631, with SNB-78 and in the assay on XF498 was > 100 µM (inactive) each time.
For `CCN(CC)CCC(=O)N1CCc2c([nH]c3ccccc23)C1c1cccnc1` (stereo unspecified), the GI50 in the assay on DLD-1, in the assay with DMS-114, in the assay on DMS-273, in the assay on HOP-18, in the assay on KM-20L2 and in the assay on LXFL 529 was > 100 µM (inactive) in each case. Also, the GI50 in the assay with SNB-78 and in the assay with XF498 was > 100 µM (inactive) each time.
On to `C=C(CN(C)C)C(=O)c1ccccc1C`, for which the GI50 was 20.9 µM (inactive) with DLD-1; 21.2 µM (inactive) in the assay on DMS-114; 24.5 µM (inactive) in the assay with DMS-273; 22.9 µM (inactive) in the assay on HOP-18; > 67.1 µM (inactive) in the assay on KM-20L2; 15.7 µM (inactive) in the assay with LXFL 529. The GI50 in the assay on RXF 631 is > 100 µM (inactive); in the assay on SNB-78, > 100 µM (inactive); in the assay with XF498, > 50.9 µM (inactive).
Regarding `Cc1ccc([S+](c2ccccc2)c2cc(C)ccc2C)cc1.O=C(OC(C(=O)[O-])C(OC(=O)c1ccccc1)C(=O)O)c1ccccc1` (stereo unspecified), the GI50 in the assay with DLD-1 was 14.6 µM (inactive); in the assay with DMS-273, 1.89 µM (inactive); in the assay on HOP-18, 12.3 µM (inactive); with KM-20L2, 7.73 µM (inactive); with SNB-78, 17.7 µM (inactive); in the assay with XF498, 3.75 µM (inactive).
As for `O=c1c2cc(Cl)ccc2sc2cccc(Cl)c12`, the GI50 with DMS-273, in the assay with KM-20L2, in the assay with LXFL 529, in the assay on RXF 631 and in the assay on SNB-78 was > 100 µM (inactive) throughout.
Consider `CCOC(=O)Nc1ccc(S(=O)(=O)OC)cc1.CCOC(=O)Nc1ccc(S(=O)(=O)OC)cc1.NNC(=O)c1ccncc1`, for which the GI50 with DLD-1 was 9.04 µM (inactive); in the assay on DMS-114, > 50 µM (inactive); in the assay with DMS-273, > 50 µM (inactive); in the assay with HOP-18, > 50 µM (inactive); with KM-20L2, > 50 µM (inactive); in the assay on LXFL 529, > 50 µM (inactive). In addition, the GI50 in the assay with RXF 631 and in the assay with SNB-78 was > 50 µM (inactive) in each case.
`COC(=O)CC(C(C(=O)OC)C(=O)OC)N1C(=O)OCC1c1ccccc1` (stereo unspecified): the GI50 in the assay with DLD-1 was > 100 µM (inactive); in the assay on DMS-273, 97.1 µM (inactive); in the assay with KM-20L2, > 100 µM (inactive); with LXFL 529, > 100 µM (inactive); in the assay with RXF 631, > 100 µM (inactive); in the assay with XF498, > 100 µM (inactive).
As to `CC1(C(=O)Nc2ccc3cc4ccccc4cc3c2)CC2(C)CC(C)(C1)C(O)NC2=O` (stereo unspecified), the GI50 is 32.9 µM (inactive) with DLD-1; 92 µM (inactive) in the assay on DMS-114; > 100 µM (inactive) in the assay with DMS-273; 93.5 µM (inactive) in the assay on HOP-18; 85.3 µM (inactive) in the assay on KM-20L2; > 100 µM (inactive) in the assay on LXFL 529. Moreover, the GI50 in the assay on SNB-78 and in the assay on XF498 was > 100 µM (inactive) throughout.
For `Cc1cc2c(cc1C)[n+]([O-])c(C(=O)CC(=O)C(=O)Nc1ccccc1C(C)C)c(C)[n+]2[O-]`, the GI50 with DMS-114, in the assay on DMS-273, in the assay with KM-20L2, in the assay on LXFL 529, with RXF 631 and with SNB-78 was > 100 µM (inactive) each time. Besides, the GI50 in the assay on XF498 was > 100 µM (inactive).
In the case of `COc1ccccc1/C=C1\CCC(CCN(C)C)(C2=CCCC2)C1=O` (stereo unspecified), the GI50 in the assay on DLD-1 is 16.8 µM (inactive); in the assay on DMS-114, 17.3 µM (inactive); with DMS-273, 17.5 µM (inactive); in the assay on HOP-18, 26.5 µM (inactive); with KM-20L2, 1.7 µM (inactive); with LXFL 529 it was 16.1 µM (inactive). The values for the GI50 with RXF 631, in the assay with SNB-78 and with XF498 were 13.9 µM (inactive), 23.9 µM (inactive) and 16.5 µM (inactive), respectively.
For `CC(C)c1ccc(O)c(Cc2cc(C(C)C)cc(Cc3cc(C(C)C)ccc3O)c2O)c1`, the GI50 was 2.01 µM (inactive) with DLD-1; 1.61 µM (inactive) in the assay with DMS-114; 2.07 µM (inactive) in the assay on KM-20L2; 1.49 µM (inactive) with LXFL 529; 2.05 µM (inactive) with SNB-78; 1.41 µM (inactive) with XF498.
Regarding `O=C(c1ccc(Cl)cc1)N(C(=S)N1CCN(c2ccccc2)CC1)C1CCCCC1`, the GI50 in the assay with DLD-1 was > 100 µM (inactive); in the assay on DMS-114, 70 µM (inactive); in the assay with DMS-273, 46.9 µM (inactive); with HOP-18, > 100 µM (inactive); with KM-20L2 it was > 100 µM (inactive); in the assay with LXFL 529, > 100 µM (inactive). For the same compound, the GI50 in the assay with SNB-78 is > 100 µM (inactive).
On to `COc1ccc(/C=C(\C(C)=O)C(=O)Nc2ccccc2)cc1`, for which the GI50 with DLD-1, in the assay on DMS-114, in the assay with HOP-18, with LXFL 529 and in the assay on SNB-78 was > 100 µM (inactive) each time.
Take `COc1ccc(NC(=O)C(=O)c2c(O)c3ccc(O)cc3oc2=O)c([N+](=O)[O-])c1`: the GI50 in the assay with DLD-1, in the assay with DMS-114, in the assay on DMS-273, in the assay with KM-20L2, in the assay with LXFL 529 and in the assay with RXF 631 was > 100 µM (inactive) each time.
In the case of `c1ccc2c3c([nH]c2c1)C1C2CCCCN2C(c2ccncc2)N1CC3` (stereo unspecified), the GI50 in the assay with DMS-114 is 27.2 µM (inactive); with DMS-273, 28.6 µM (inactive); in the assay with KM-20L2, 24 µM (inactive); in the assay on LXFL 529, 38.1 µM (inactive); in the assay on SNB-78, 42.8 µM (inactive); with XF498, 23.6 µM (inactive).
For the compound `N#Cc1ccccc1NC(=O)/C(=N\Nc1ccc([N+](=O)[O-])cc1)C1C(=O)NC(=O)NC1=O`, the GI50 in the assay on DLD-1, with DMS-114, in the assay with KM-20L2, in the assay on LXFL 529 and with SNB-78 was > 100 µM (inactive) throughout.
Consider `CCNc1c(C(=O)N(CC)CC)c(=O)[nH]c2ncccc12`, for which the GI50 in the assay on DLD-1, with DMS-114, in the assay on DMS-273, in the assay on KM-20L2, in the assay on LXFL 529 and with SNB-78 was > 100 µM (inactive) in each case.
Consider `O=[N+]([O-])c1ccc(Cl)c(C2CC(c3cccc4ccccc34)=Nc3ccccc3S2)c1` (stereo unspecified), for which the GI50 in the assay with DLD-1 was 13.2 µM (inactive); in the assay on DMS-114 it was 20.2 µM (inactive); in the assay on DMS-273 it was 20.4 µM (inactive); in the assay on HOP-18, 26.9 µM (inactive); in the assay on KM-20L2 it was 29.3 µM (inactive); in the assay with LXFL 529, 18.5 µM (inactive). The GI50 in the assay with RXF 631 was > 65 µM (inactive); in the assay with SNB-78, 26.5 µM (inactive).
Take `CCCCCCCCC/C=C1\CCC(CN2CCOCC2)C1=O` (stereo unspecified): the GI50 with DLD-1 is 1.96 µM (inactive); with DMS-114 it was 2.92 µM (inactive); in the assay on DMS-273, 2.32 µM (inactive); in the assay with HOP-18, 1.54 µM (inactive); in the assay with KM-20L2 it was 7.35 µM (inactive); with LXFL 529 it was 1.6 µM (inactive). For the same compound, the GI50 with RXF 631 is 5.62 µM (inactive); in the assay on SNB-78 it was 4.29 µM (inactive).
On to `O=C(N/C=C1\C(=O)Oc2ccccc2C1=O)Nc1ccccc1`, for which the GI50 is 42.6 µM (inactive) with DLD-1; 44.9 µM (inactive) in the assay on DMS-114; > 100 µM (inactive) with DMS-273; 27.5 µM (inactive) in the assay with HOP-18; > 100 µM (inactive) in the assay with KM-20L2; 81.1 µM (inactive) with LXFL 529. For the same compound, the GI50 was 30.1 µM (inactive) in the assay on SNB-78 and 74.3 µM (inactive) in the assay on XF498.
Turning to `CCn1c(C)nn2c(=O)c3ccccc3nc2c1=O`, the GI50 in the assay with DLD-1, in the assay on DMS-114, with DMS-273, with HOP-18, in the assay on KM-20L2 and in the assay with LXFL 529 was > 100 µM (inactive) throughout. In addition, the GI50 with SNB-78 and in the assay with XF498 was > 100 µM (inactive) in each case.

The values above are taken from ChEMBL document CHEMBL1201862, “PubChem BioAssay data set” (2004).
